Columns and labels:
[1] = system: patients with chronic constipation; assay: Clinical trial in patients with chronic constipation (Example 5); type: in vivo, human
Procedure: After observation for 2 weeks, Compound 2 or a placebo was administered orally after eating to 79 patients with chronic constipation for 4 weeks. Patients who had steady symptoms for long periods were selected as constipation patients using diagnostic criteria of functional constipation based on Rome III as a reference.
2 mg TID group: administration of 2 mg of Compound 2, 3 times daily • (after breakfast, after lunch, after dinner)
20 mg QD group: administration of 20 mg of Compound 2, 1 time daily • (after breakfast)
20 mg BID group: administration of 20 mg of Compound 2, 2 times daily • (after breakfast, after dinner)
20 mg TID group: administration of 20 mg of Compound 2, 3 times daily • (after breakfast, after lunch, after dinner)
For the administration of Compound 2, tablets containing 1 or 10 mg in free drug equivalent of Compound 2 were used.
If the subjects complained that further administration of 2 tablets each time was difficult due to the increase in the frequency of spontaneous bowel movements or softened stool form causing problems in daily life, the dose was switched to 1 tablet each time in the week 1 visit or week 2 visit by the doctor and the administration was continued.

[2] = system: Loperamide-induced dog constipation model; assay: Loperamide-induced dog constipation model (Example 1); type: in vivo; conditions: for Dry fecal weight within 24 hours after the administration / Wet fecal weight within 24 hours after the administration / Frequency of bowel movement within 24 hours after the administration: mean of 10 dogs; for Dry fecal weight within 24 hours after the administration: Control group 1.0, Normal group 47.1; for Wet fecal weight within 24 hours after the administration: Control group 2.8, Normal group 136.2; for Frequency of bowel movement within 24 hours after the administration: observation at 17, 21, 24 hours, Control group 0.2, Normal group 2.1
Procedure: Lubiprostone (TLC Pharma Chem) was weighed and was suspended in 0.5% methylcellulose at preparation concentrations of 0.05 and 0.35 mg/mL to prepare control substances.
Loperamide hydrochloride (Wako pure chemical) was weighed at 0.3, 0.5, 1.0, 2.0, 4.0 or 8.0 mg/kg for each animal and was filled into a gelatin capsule.
Loperamide hydrochloride which was filled into a gelatin capsule was orally administered to dogs (beagle, male, 13-14 months old, 10 dogs, Kitayama-labesu). The dosage was increased from 0.3 mg/kg, and was set at 2.0, 4.0 or 8.0 mg/kg based on the bowel movement condition of each dog.
Tests were performed as a full cross-over trial. More than 5-day washout period was provided between each test, and a recovery of stool form was identified, and then the next test was performed.
A gelatin capsule which was filled with loperamide hydrochloride was administered orally at around 9 a.m. on the first and second days in each test.
The stool form of feces was scored in seven categories based on Bristol Stool Form Scale. The collected feces were dried fully, and then the feces were weighed, and it was set as the dry fecal weight.

healthy adult males [3] = assay: Single-dose study in healthy adult males (Example 3); type: in vivo, human; conditions: for Number of subject with gastrointestinal disorders: Abdominal bloating / Number of subject with gastrointestinal disorders: Abdominal pain / Number of subject with gastrointestinal disorders: Diarrhea: of 6 subjects; for Frequency of bowel movement after the administration, Mean: 6 subjects, 48 hours, Placebo 1.7
Procedure: Compound 2 at a single dose of 2, 5, 10, 20, 40, 80 or 160 mg (free drug equivalent), or placebo was orally administered just immediately before breakfast to healthy adult males. For the administration of Compound 2, tablets containing 1, 5 or 10 mg in free drug equivalent were used. The test period was set between the administration and the discharge 48 hours after the administration. Frequencies of bowel movements were checked during consultation by a doctor, and the adverse events (gastrointestinal disorders) were defined when an abnormal finding (diarrhea or loose stool) was seen based on the stool form and the finding.

healthy adult males [4] = assay: Multiple-dose study in healthy adult males (Example 4); type: in vivo, human; conditions: for Daily frequency of bowel movement after the administration, Mean: once daily Days 1 and 13, 3 times daily Days 3 to 12, daily mean during fifteen days, 8 subjects, Placebo 1.0; for Number of subject with gastrointestinal disorders: Abdominal pain / Number of subject with gastrointestinal disorders: Diarrhea: of 8 subjects; for Number of subject with gastrointestinal disorders: Abdominal pain: Placebo 0; for Number of subject with gastrointestinal disorders: Diarrhea: Placebo 3
Procedure: Compound 2 at a dose of 2, 5, 10 or 20 mg (free drug equivalent), a placebo, or miglitol at a dose of 50 mg was repetitively administered orally once daily just immediately before breakfast on administration Days 1 and 13, and 3 times daily just immediately before every meal on administration Days 3 to 12 to healthy adult males. For the administration of Compound 2, tablets containing 1, 5 or 10 mg in free drug equivalent were used. The test period was set between administration Day 1 and Day 15. Frequencies of bowel movements were checked during consultation by a doctor, and the adverse events (gastrointestinal disorders) were defined when an abnormal finding (diarrhea or loose stool) was seen based on the stool form and the finding. In this regard, the frequencies of bowel movements in Table 8 show the daily means during fifteen days (time/day).

`Cc1cc(OCCCNCC(C)(C)C(N)=O)ccc1Cc1c(O[C@@H]2O[C@H](CO)[C@@H](O)[C@H](O)[C@H]2O)n[nH]c1C(C)C.Cc1cc(OCCCNCC(C)(C)C(N)=O)ccc1Cc1c(O[C@@H]2O[C@H](CO)[C@@H](O)[C@H](O)[C@H]2O)n[nH]c1C(C)C.O=C(O)CCCCCCCCC(=O)O` [Compound 2, bis[3-(3-{4-[3-(β-D-glucopyranosyloxy)-5-isopropyl-1H-pyrazol-4-ylmethyl]-3-methylphenoxy}propylamino)-2,2-dimethylpropionamide]monosebacate] was tested, and the Subjects with hypoglycemia ([1]; all groups administered, 4 weeks) was “no subjects with hypoglycemia were reported”, the “Frequency of spontaneous bowel movements per week” value (“Frequency … per week” below) ([1]; subject 1, 2 mg TID, administration week 1, observation period 1.1) was 7.0 time/week and the “Bristol Stool Form Scale” value ([1]; subject 1, 2 mg TID, administration week 1, observation period 1.5) was 3.7 mean/week. For the same compound, the “Frequency … per week” value ([1]; subject 1, 2 mg TID, administration week 2, observation period 1.1) was 7.0 time/week, the “Bristol Stool Form Scale” value ([1]; subject 1, 2 mg TID, administration week 2, observation period 1.5) was 3.7 mean/week and the “Frequency … per week” value ([1]; subject 1, 2 mg TID, administration week 3, observation period 1.1) was 11.0 time/week. For the same compound, the “Bristol Stool Form Scale” value ([1]; subject 1, 2 mg TID, administration week 3, observation period 1.5) was 4.1 mean/week, the “Frequency … per week” value ([1]; subject 1, 2 mg TID, administration week 4, observation period 1.1) was 10.5 time/week and the “Bristol Stool Form Scale” value ([1]; subject 1, 2 mg TID, administration week 4, observation period 1.5) was 3.8 mean/week. The “Frequency … per week” value ([1]; subject 2, 20 mg QD, administration week 1, observation period 1.8) was 12.0 time/week, the “Bristol Stool Form Scale” value ([1]; subject 2, 20 mg QD, administration week 1, observation period 3.0) was 4.6 mean/week and the “Frequency … per week” value ([1]; subject 2, 20 mg QD, administration week 2, observation period 1.8) was 13.0 time/week. The “Bristol Stool Form Scale” value ([1]; subject 2, 20 mg QD, administration week 2, observation period 3.0) was 4.0 mean/week, the “Frequency … per week” value ([1]; subject 2, 20 mg QD, administration week 3, observation period 1.8) was 8.0 time/week and the “Bristol Stool Form Scale” value ([1]; subject 2, 20 mg QD, administration week 3, observation period 3.0) was 3.4 mean/week. The “Bristol Stool Form Scale” value ([1]; subject 3, 20 mg BID switched to 10 mg 2 times daily after 1 week, administration week 2, observation period 2.0) was 4.0 mean/week, the “Frequency … per week” value ([1]; subject 3, 20 mg BID switched to 10 mg 2 times daily after 1 week, administration week 2, observation period 2.2) was 6.0 time/week and the “Bristol Stool Form Scale” value ([1]; subject 3, 20 mg BID switched to 10 mg 2 times daily after 1 week, administration week 3, observation period 2.0) was 4.3 mean/week. The “Frequency … per week” value ([1]; subject 3, 20 mg BID switched to 10 mg 2 times daily after 1 week, administration week 3, observation period 2.2) was 6.0 time/week, the “Bristol Stool Form Scale” value ([1]; subject 3, 20 mg BID switched to 10 mg 2 times daily after 1 week, administration week 4, observation period 2.0) was 4.2 mean/week and the “Frequency … per week” value ([1]; subject 3, 20 mg BID switched to 10 mg 2 times daily after 1 week, administration week 4, observation period 2.2) was 5.0 time/week. For the same compound, the “Bristol Stool Form Scale” value ([1]; subject 3, 20 mg BID, administration week 1, observation period 2.0) was 5.9 mean/week, the “Frequency … per week” value ([1]; subject 3, 20 mg BID, administration week 1, observation period 2.2) was 21.0 time/week and the “Dry fecal weight within 24 hours after the administration” value (from here on “Dry fecal weight within 24 hours”) ([2]; 1 mg/kg oral) was 10.4 g. The “Wet fecal weight within 24 hours after the administration” value (shortened to “Wet fecal weight within 24 hours”) ([2]; 1 mg/kg oral) was 29.5 g, the “Frequency of bowel movement within 24 hours after the administration” value ([2]; 1 mg/kg oral) was 0.5 time and the “Wet fecal weight, dry weight and frequency of bowel movements versus Control group” value ([2]; 3 mg/kg or more, significance level <5%) was “significantly higher than in Control group”. The “Dry fecal weight within 24 hours” value ([2]; 3 mg/kg oral) was 21.6 g, the “Wet fecal weight within 24 hours” value ([2]; 3 mg/kg oral) was 60.9 g and the “Frequency of bowel movement within 24 hours after the administration” value ([2]; 3 mg/kg oral) was 1.2 time. For the same compound, the “Dry fecal weight within 24 hours” value ([2]; 10 mg/kg oral) was 27.3 g, the “Wet fecal weight within 24 hours” value ([2]; 10 mg/kg oral) was 77.2 g and the “Frequency of bowel movement within 24 hours after the administration” value ([2]; 10 mg/kg oral) was 1.5 time. For the same compound, the “Increases of loose stool and diarrhea” value ([2]; all doses of this test) was “not observed”, the “Dose dependence of wet fecal weight, dry weight and frequency of bowel movements” value ([2]; within 24 hours after oral administration) was “dose-dependently increased” and the “Stool form (Bristol Stool Form Scale)” value (healthy adult males [3]; 80 mg and 160 mg groups) was “type 6 or 7 for many subjects”. The “Number of subject with gastrointestinal disorders: Abdominal bloating” value (“Number of subject … Abdominal bloating” below) (healthy adult males [3]; single dose 2 mg) was 0, the “Number of subject with gastrointestinal disorders: Abdominal pain” value (“Number of subject … Abdominal pain” below) (healthy adult males [3]; single dose 2 mg) was 0 and the “Number of subject with gastrointestinal disorders: Diarrhea” value (“Number of subject … Diarrhea” below) (healthy adult males [3]; single dose 2 mg) was 1. The “Number of subject … Abdominal bloating” value (healthy adult males [3]; single dose 5 mg) was 0, the “Number of subject … Abdominal pain” value (healthy adult males [3]; single dose 5 mg) was 0 and the “Number of subject … Diarrhea” value (healthy adult males [3]; single dose 5 mg) was 0. The “Number of subject … Abdominal bloating” value (healthy adult males [3]; single dose 10 mg) was 0, the “Number of subject … Abdominal pain” value (healthy adult males [3]; single dose 10 mg) was 0 and the “Number of subject … Diarrhea” value (healthy adult males [3]; single dose 10 mg) was 2. For the same compound, the “Number of subject … Abdominal bloating” value (healthy adult males [3]; single dose 20 mg) was 0, the “Number of subject … Abdominal pain” value (healthy adult males [3]; single dose 20 mg) was 0 and the “Number of subject … Diarrhea” value (healthy adult males [3]; single dose 20 mg) was 2. The “Number of subject … Abdominal bloating” value (healthy adult males [3]; single dose 40 mg) was 0, the “Number of subject … Abdominal pain” value (healthy adult males [3]; single dose 40 mg) was 0 and the “Number of subject … Diarrhea” value (healthy adult males [3]; single dose 40 mg) was 2. The “Number of subject … Abdominal bloating” value (healthy adult males [3]; single dose 80 mg) was 2, the “Number of subject … Abdominal pain” value (healthy adult males [3]; single dose 80 mg) was 4 and the “Number of subject … Diarrhea” value (healthy adult males [3]; single dose 80 mg) was 5. The “Number of subject … Abdominal bloating” value (healthy adult males [3]; single dose 160 mg) was 3, the “Number of subject … Abdominal pain” value (healthy adult males [3]; single dose 160 mg) was 3 and the “Number of subject … Diarrhea” value (healthy adult males [3]; single dose 160 mg) was 6. The “Severity of gastrointestinal disorders (abdominal bloating, abdominal pain, diarrhea)” value (healthy adult males [3]; single dose 2-160 mg) was “mild in all the cases”, the “Frequency of bowel movement after the administration, Mean” value (healthy adult males [3]; single oral dose 2 mg (free drug equivalent)) was 1.7 time and the “Frequency of bowel movement after the administration, Mean” value (healthy adult males [3]; single oral dose 5 mg (free drug equivalent)) was 1.0 time. For the same compound, the “Frequency of bowel movement after the administration, Mean” value (healthy adult males [3]; single oral dose 10 mg (free drug equivalent)) was 2.2 time, the “Frequency of bowel movement after the administration, Mean” value (healthy adult males [3]; single oral dose 20 mg (free drug equivalent)) was 2.2 time and the “Frequency of bowel movement after the administration, Mean” value (healthy adult males [3]; single oral dose 40 mg (free drug equivalent)) was 1.8 time. The “Frequency of bowel movement after the administration, Mean” value (healthy adult males [3]; single oral dose 80 mg (free drug equivalent)) was 4.8 time, the “Frequency of bowel movement after the administration, Mean” value (healthy adult males [3]; single oral dose 160 mg (free drug equivalent)) was 5.2 time and the “Daily frequency of bowel movement after the administration, Mean” value (from here on “Daily frequency of bowel movement”) (healthy adult males [4]; 2 mg) was 1.4 time/day. The “Daily frequency of bowel movement” value (healthy adult males [4]; 5 mg) was 1.1 time/day, the “Daily frequency of bowel movement” value (healthy adult males [4]; 10 mg) was 2.0 time/day and the “Daily frequency of bowel movement” value (healthy adult males [4]; 20 mg) was 1.7 time/day. The “Number of subject … Abdominal pain” value (healthy adult males [4]; multiple dose 2 mg) was 0, the “Number of subject … Diarrhea” value (healthy adult males [4]; multiple dose 2 mg) was 6 and the “Number of subject … Abdominal pain” value (healthy adult males [4]; multiple dose 5 mg) was 0. For the same compound, the “Number of subject … Diarrhea” value (healthy adult males [4]; multiple dose 5 mg) was 5, the “Number of subject … Abdominal pain” value (healthy adult males [4]; multiple dose 10 mg) was 0 and the “Number of subject … Diarrhea” value (healthy adult males [4]; multiple dose 10 mg) was 5. For the same compound, the “Number of subject … Abdominal pain” value (healthy adult males [4]; multiple dose 20 mg) was 1 and the “Number of subject … Diarrhea” value (healthy adult males [4]; multiple dose 20 mg) was 6.

Reference: patent US9694027B2, “Pyrazole derivative and use thereof for medical purposes” (KISSEI PHARMACEUTICAL CO. LTD., priority 2012, dated 2017)
